{"source": "patent US4175125A", "about": "“Method for treating methicillin resistant staphylococcus aureus” (Eli Lilly and Company, priority 1978, dated 1979)", "key": {"[1]": {"test_system": "Staphylococcus aureus cultures", "assay": "Modified Bauer-Kirby Disc Susceptibility Test (Example 11)", "assay_type": "cell-based", "design": "zone of inhibition: dose or concentration left out as unconfirmed", "settings": "for zone of inhibition: Staphylococcus aureus; for Change 37°-30°: 30 mg Disc", "procedure": "This example exemplifies the antibiotic activity of 7-[2'-(3\"-chloro-4\"-fluorophenylthio)acetamido]cephalosporanic acid, a water soluble compound, described in Example 8, against various Staphylococcus aureus cultures, in a modified Bauer-Kirby Disc Susceptibility Test (Bauer, A. W., W. M. M. Kirby, J. C. Sherris, and M. Turck, 1966, Amer. J. Clin. Pathol. 45:493-496). In this test the cultures were incubated at both 37° C. or 30° C. […] 16, 1968, the heterogeneity of methicilllin-resistant S. aureus is manifested by incubation at 30° C."}, "[2]": {"test_system": "Staphylococcus aureus cultures", "assay": "Agar dilution MIC, Example 13 compound vs methicillin resistant Staphylococcus aureus", "assay_type": "cell-based", "from_the_text": "The table which follows gives the minimum inhibitory concentration (MIC) in micrograms of compound per milliliter of culture (μg/ml), in comparison with similar MIC values for the known antibiotics methicillin, cephalothin and cephaloridine against the same strains of bacteria."}}, "note": "Read-outs that look alike come from different tables or passages of the source."}
{"compound": "CC(=O)OCC1=C(C(=O)O)N2C(=O)[C@@H](NC(=O)Cc3cccs3)[C@H]2SC1", "note": "[Cephalothin, cephalothin, reference compound]", "values": [{"measurement": "zone of inhibition", "setting": "[1]; culture 3055 (penicillin sensitive), 30°, read-out: disc susceptibility (zone) at 30°", "result": "> 35", "unit": "mm"}, {"measurement": "zone of inhibition", "setting": "[1]; culture 3055 (penicillin sensitive), 37°, read-out: disc susceptibility (zone) at 37°", "result": "> 35", "unit": "mm"}, {"measurement": "zone of inhibition", "setting": "[1]; culture 3074 (methicillin sensitive, penicillinase producing), 30°, read-out: disc susceptibility (zone) at 30°", "result": 32.1, "unit": "mm"}, {"measurement": "zone of inhibition", "setting": "[1]; culture 3074 (methicillin sensitive, penicillinase producing), 37°, read-out: disc susceptibility (zone) at 37°", "result": 31.8, "unit": "mm"}, {"measurement": "zone of inhibition", "setting": "[1]; culture 3125 (methicillin resistant), 30°, read-out: disc susceptibility (zone) at 30°", "result": 33.8, "unit": "mm"}, {"measurement": "zone of inhibition", "setting": "[1]; culture 3125 (methicillin resistant), 37°, read-out: disc susceptibility (zone) at 37°", "result": 33.4, "unit": "mm"}, {"measurement": "zone of inhibition", "setting": "[1]; culture 3130 (methicillin resistant), 30°, read-out: disc susceptibility (zone) at 30°", "result": 20.2, "unit": "mm"}, {"measurement": "zone of inhibition", "setting": "[1]; culture 3130 (methicillin resistant), 37°, read-out: disc susceptibility (zone) at 37°", "result": 32.8, "unit": "mm"}, {"measurement": "zone of inhibition", "setting": "[1]; culture 3131 (methicillin resistant), 30°, read-out: disc susceptibility (zone) at 30°", "result": 16.6, "unit": "mm"}, {"measurement": "zone of inhibition", "setting": "[1]; culture 3131 (methicillin resistant), 37°, read-out: disc susceptibility (zone) at 37°", "result": 29.6, "unit": "mm"}, {"measurement": "zone of inhibition", "setting": "[1]; culture 3132 (methicillin resistant), 30°, read-out: disc susceptibility (zone) at 30°", "result": 17.6, "unit": "mm"}, {"measurement": "zone of inhibition", "setting": "[1]; culture 3132 (methicillin resistant), 37°, read-out: disc susceptibility (zone) at 37°", "result": 28.6, "unit": "mm"}, {"measurement": "zone of inhibition", "setting": "[1]; culture 3133 (methicillin resistant), 30°, read-out: disc susceptibility (zone) at 30°", "result": 12.8, "unit": "mm"}, {"measurement": "zone of inhibition", "setting": "[1]; culture 3133 (methicillin resistant), 37°, read-out: disc susceptibility (zone) at 37°", "result": 28.8, "unit": "mm"}, {"measurement": "zone of inhibition", "setting": "[1]; culture 3134 (methicillin resistant), 30°, read-out: disc susceptibility (zone) at 30°", "result": 12.1, "unit": "mm"}, {"measurement": "zone of inhibition", "setting": "[1]; culture 3134 (methicillin resistant), 37°, read-out: disc susceptibility (zone) at 37°", "result": 27.8, "unit": "mm"}, {"measurement": "zone of inhibition", "setting": "[1]; culture 3135 (methicillin resistant), 30°, read-out: disc susceptibility (zone) at 30°", "result": 11.8, "unit": "mm"}, {"measurement": "zone of inhibition", "setting": "[1]; culture 3135 (methicillin resistant), 37°, read-out: disc susceptibility (zone) at 37°", "result": 28, "unit": "mm"}, {"measurement": "zone of inhibition", "setting": "[1]; culture 3136 (methicillin resistant), 30°, read-out: disc susceptibility (zone) at 30°", "result": 20.8, "unit": "mm"}, {"measurement": "zone of inhibition", "setting": "[1]; culture 3136 (methicillin resistant), 37°, read-out: disc susceptibility (zone) at 37°", "result": 35.6, "unit": "mm"}, {"measurement": "zone of inhibition", "setting": "[1]; culture 3137 (methicillin resistant), 30°, read-out: disc susceptibility (zone) at 30°", "result": 0, "unit": "mm"}, {"measurement": "zone of inhibition", "setting": "[1]; culture 3137 (methicillin resistant), 37°, read-out: disc susceptibility (zone) at 37°", "result": 17.8, "unit": "mm"}, {"measurement": "zone of inhibition", "setting": "[1]; culture 3138 (methicillin resistant), 30°, read-out: disc susceptibility (zone) at 30°", "result": 11.3, "unit": "mm"}, {"measurement": "zone of inhibition", "setting": "[1]; culture 3138 (methicillin resistant), 37°, read-out: disc susceptibility (zone) at 37°", "result": 26.2, "unit": "mm"}, {"measurement": "zone of inhibition", "setting": "[1]; culture 3139 (methicillin resistant), 30°, read-out: disc susceptibility (zone) at 30°", "result": 27, "unit": "mm"}, {"measurement": "zone of inhibition", "setting": "[1]; culture 3139 (methicillin resistant), 37°, read-out: disc susceptibility (zone) at 37°", "result": 32, "unit": "mm"}, {"measurement": "zone of inhibition", "setting": "[1]; culture 3140 (methicillin resistant), 30°, read-out: disc susceptibility (zone) at 30°", "result": 10.4, "unit": "mm"}, {"measurement": "zone of inhibition", "setting": "[1]; culture 3140 (methicillin resistant), 37°, read-out: disc susceptibility (zone) at 37°", "result": 29.7, "unit": "mm"}, {"measurement": "zone of inhibition", "setting": "[1]; culture H232 (methicillin sensitive, penicillinase producing), 30°, read-out: disc susceptibility (zone) at 30°", "result": 33.2, "unit": "mm"}, {"measurement": "zone of inhibition", "setting": "[1]; culture H232 (methicillin sensitive, penicillinase producing), 37°, read-out: disc susceptibility (zone) at 37°", "result": 33.4, "unit": "mm"}, {"measurement": "Change 37°-30°", "setting": "[1]; culture 3074", "result": "+0.3 mm"}, {"measurement": "Change 37°-30°", "setting": "[1]; culture 3130", "result": -12.6, "unit": "mm"}, {"measurement": "Change 37°-30°", "setting": "[1]; culture 3131", "result": -13.0, "unit": "mm"}, {"measurement": "Change 37°-30°", "setting": "[1]; culture 3132", "result": -11.0, "unit": "mm"}, {"measurement": "Change 37°-30°", "setting": "[1]; culture 3133", "result": -16.0, "unit": "mm"}, {"measurement": "Change 37°-30°", "setting": "[1]; culture 3134", "result": -15.7, "unit": "mm"}, {"measurement": "Change 37°-30°", "setting": "[1]; culture 3135", "result": -16.2, "unit": "mm"}, {"measurement": "Change 37°-30°", "setting": "[1]; culture 3136", "result": -14.8, "unit": "mm"}, {"measurement": "Change 37°-30°", "setting": "[1]; culture 3137", "result": "> 17.8", "unit": "mm"}, {"measurement": "Change 37°-30°", "setting": "[1]; culture 3138", "result": -14.9, "unit": "mm"}, {"measurement": "Change 37°-30°", "setting": "[1]; culture 3139", "result": -5.0, "unit": "mm"}, {"measurement": "Change 37°-30°", "setting": "[1]; culture 3140", "result": -13.3, "unit": "mm"}, {"measurement": "Change 37°-30°", "setting": "[1]; culture H232", "result": -0.2, "unit": "mm"}, {"measurement": "MIC", "setting": "[2]; culture 3055 (control), Trypticase Soy Agar with 4.5% NaCl added (5% NaCl)", "result": 0.25, "unit": "µg/mL"}, {"measurement": "MIC", "setting": "[2]; culture 3055 (control), Trypticase Soy Agar, 0.5% NaCl", "result": 0.13, "unit": "µg/mL"}, {"measurement": "MIC", "setting": "[2]; culture 3130, Trypticase Soy Agar with 4.5% NaCl added (5% NaCl)", "result": 1, "unit": "µg/mL"}, {"measurement": "MIC", "setting": "[2]; culture 3130, Trypticase Soy Agar, 0.5% NaCl", "result": 0.5, "unit": "µg/mL"}, {"measurement": "MIC", "setting": "[2]; culture 3131, Trypticase Soy Agar with 4.5% NaCl added (5% NaCl)", "result": 1, "unit": "µg/mL"}, {"measurement": "MIC", "setting": "[2]; culture 3131, Trypticase Soy Agar, 0.5% NaCl", "result": 0.5, "unit": "µg/mL"}, {"measurement": "MIC", "setting": "[2]; culture 3132, Trypticase Soy Agar with 4.5% NaCl added (5% NaCl)", "result": 0.5, "unit": "µg/mL"}, {"measurement": "MIC", "setting": "[2]; culture 3132, Trypticase Soy Agar, 0.5% NaCl", "result": 0.5, "unit": "µg/mL"}, {"measurement": "MIC", "setting": "[2]; culture 3133, Trypticase Soy Agar with 4.5% NaCl added (5% NaCl)", "result": 0.5, "unit": "µg/mL"}, {"measurement": "MIC", "setting": "[2]; culture 3133, Trypticase Soy Agar, 0.5% NaCl", "result": 0.5, "unit": "µg/mL"}, {"measurement": "MIC", "setting": "[2]; culture 3134, Trypticase Soy Agar with 4.5% NaCl added (5% NaCl)", "result": 1, "unit": "µg/mL"}, {"measurement": "MIC", "setting": "[2]; culture 3134, Trypticase Soy Agar, 0.5% NaCl", "result": 2, "unit": "µg/mL"}, {"measurement": "MIC", "setting": "[2]; culture 3135, Trypticase Soy Agar with 4.5% NaCl added (5% NaCl)", "result": 1, "unit": "µg/mL"}, {"measurement": "MIC", "setting": "[2]; culture 3135, Trypticase Soy Agar, 0.5% NaCl", "result": 1, "unit": "µg/mL"}, {"measurement": "MIC", "setting": "[2]; culture 3136, Trypticase Soy Agar with 4.5% NaCl added (5% NaCl)", "result": 1, "unit": "µg/mL"}, {"measurement": "MIC", "setting": "[2]; culture 3136, Trypticase Soy Agar, 0.5% NaCl", "result": 0.5, "unit": "µg/mL"}, {"measurement": "MIC", "setting": "[2]; culture 3137, Trypticase Soy Agar with 4.5% NaCl added (5% NaCl)", "result": 1, "unit": "µg/mL"}, {"measurement": "MIC", "setting": "[2]; culture 3137, Trypticase Soy Agar, 0.5% NaCl", "result": 2, "unit": "µg/mL"}, {"measurement": "MIC", "setting": "[2]; culture 3138, Trypticase Soy Agar with 4.5% NaCl added (5% NaCl)", "result": 2, "unit": "µg/mL"}, {"measurement": "MIC", "setting": "[2]; culture 3138, Trypticase Soy Agar, 0.5% NaCl", "result": 1, "unit": "µg/mL"}, {"measurement": "MIC", "setting": "[2]; culture 3139, Trypticase Soy Agar with 4.5% NaCl added (5% NaCl)", "result": 0.25, "unit": "µg/mL"}, {"measurement": "MIC", "setting": "[2]; culture 3139, Trypticase Soy Agar, 0.5% NaCl", "result": 0.5, "unit": "µg/mL"}, {"measurement": "MIC", "setting": "[2]; culture H232 (control), Trypticase Soy Agar with 4.5% NaCl added (5% NaCl)", "result": 0.25, "unit": "µg/mL"}, {"measurement": "MIC", "setting": "[2]; culture H232 (control), Trypticase Soy Agar, 0.5% NaCl", "result": 2.5, "unit": "µg/mL"}, {"measurement": "MIC", "setting": "[2]; culture Havarmak 1136501, Trypticase Soy Agar with 4.5% NaCl added (5% NaCl)", "result": 1, "unit": "µg/mL"}, {"measurement": "MIC", "setting": "[2]; culture Havarmak 1136501, Trypticase Soy Agar, 0.5% NaCl", "result": 1, "unit": "µg/mL"}, {"measurement": "MIC", "setting": "[2]; culture S 61, Trypticase Soy Agar with 4.5% NaCl added (5% NaCl)", "result": 1, "unit": "µg/mL"}, {"measurement": "MIC", "setting": "[2]; culture S 61, Trypticase Soy Agar, 0.5% NaCl", "result": 1, "unit": "µg/mL"}, {"measurement": "MIC", "setting": "[2]; culture Seattle 966, Trypticase Soy Agar with 4.5% NaCl added (5% NaCl)", "result": 0.25, "unit": "µg/mL"}, {"measurement": "MIC", "setting": "[2]; culture Seattle 966, Trypticase Soy Agar, 0.5% NaCl", "result": 0.5, "unit": "µg/mL"}]}
